In patent US20060264388A1, “Method for treating liver cancer by intrahepatic administration of nemorubicin” (priority 2003, published 2006):

Key:
[1] = test system: patients with liver cancer; test: Liver toxicity (SGOT, SGPT, Total Bilirubin), worst CTC Grade by cycle, intrahepatic artery nemorubicin q8wk vs q6wk; type: in vivo, human
Method: (§1) The objective of the study was to shorten the time interval between treatment administrations from every 8 weeks (q8wk) of the protocol as reported in WO 00/15203 to every 6 weeks (q6wk). This was done in the attempt of improving the therapeutic potential of nemorubicin treatment through an increase of the dose intensity of the therapy, simultaneously safeguarding patient safety.
(§2) Overall, 13 patients were treated with the q8wk schedule (total 25 cycles administered; doses ranged from 200 to 800 mcg/m^2), and 11 patients were treated with the q6wk schedule (total 32 cycles administered; doses were 200 and 600 mcg/m^2).
(§3) The NCI-Common Tosicity Criteria grading system (CTC Grade), Version 2.0, was used to report toxicities.

[2] = test system: patients with liver cancer; test: Hematological toxicity - Leucocytes, worst CTC Grade by cycle, intrahepatic artery nemorubicin q8wk vs q6wk; type: in vivo, human
Method: as §1, §2, §3
A slight cumulative effect (i.e., increase in frequency but not in severity) was observed after repeated cycles for leucopenia and neutropenia (Tables 2 and 3), mainly with the q8wk schedule.

[3] = test system: tumor cells resistant to anthracyclines and presenting the mdr phenotype; conditions: cited from earlier work
[4] = test system: liver lesions of breast cancer patients with liver metastases; conditions: 1500 mcg/m^2 i.v., cited from earlier work
[5] = test system: tumor cells resistant to L-PAM or cDDP, or cells resistant to Topoisomerase II inhibitors (at-mdr); conditions: cited from earlier work
[6] = 600 mcg/m^2 q8wk, 7 evaluable cycles
[7] = 800 mcg/m^2 q8wk, 5 evaluable cycles
[8] = 800 mcg/m^2 q8wk, 6 evaluable cycles
[9] = 200 mcg/m^2 q6wk, All cycles, 11 evaluable cycles
[10] = 200 mcg/m^2 q6wk, Cycles > 1, 6 evaluable cycles
[11] = 200 mcg/m^2 q8wk, All cycles, 5 evaluable cycles
[12] = 200 mcg/m^2 q8wk, Cycle 1, 3 evaluable cycles
[13] = 200 mcg/m^2 q8wk, Cycles > 1, 2 evaluable cycles
[14] = 400 mcg/m^2 q8wk, All cycles, 4 evaluable cycles
[15] = 400 mcg/m^2 q8wk, Cycle 1, 3 evaluable cycles
[16] = 600 mcg/m^2 q6wk, All cycles, 18 evaluable cycles
[17] = 600 mcg/m^2 q6wk, Cycle 1, 6 evaluable cycles
[18] = 600 mcg/m^2 q6wk, Cycles > 1, 12 evaluable cycles
[19] = 600 mcg/m^2 q8wk, All cycles, 8 evaluable cycles
[20] = 600 mcg/m^2 q8wk, Cycle 1, 4 evaluable cycles
[21] = 600 mcg/m^2 q8wk, Cycles > 1, 4 evaluable cycles
[22] = 800 mcg/m^2 q8wk, All cycles, 4 evaluable cycles
[23] = 800 mcg/m^2 q8wk, Cycle 1, 3 evaluable cycles
[24] = 800 mcg/m^2 q8wk, Cycles > 1, 1 evaluable cycle

## COc1cccc2c1C(=O)c1c(O)c3c(c(O)c1C2=O)C[C@@](O)(C(=O)CO)C[C@@H]3O[C@H]1C[C@H](N2CCO[C@H](OC)C2)[C@H](O)[C@H](C)O1.Cl [nemorubicin, 3′desamino-3′[2(S)methoxy-4-morpholinyl]doxorubicin-hydrochloride]
[1]; 600 mcg/m^2 q6wk, 18 evaluable cycles
  Total Bilirubin, worst CTC Grade by cycle (increased of at least one Grade versus baseline Grade): Grade 3-4 (%): 1 (5%) (%)
[1]; [6]
  SGOT, worst CTC Grade by cycle (increased of at least one Grade versus baseline Grade): All Grades (%): 4 (57%) (%)
  SGOT, worst CTC Grade by cycle (increased of at least one Grade versus baseline Grade): Grade 1-2 (%): 2 (28%) (%)
  SGPT, worst CTC Grade by cycle (increased of at least one Grade versus baseline Grade): All Grades (%): 4 (57%) (%)
  SGPT, worst CTC Grade by cycle (increased of at least one Grade versus baseline Grade): Grade 1-2 (%): 1 (14%) (%)
  Total Bilirubin, worst CTC Grade by cycle (increased of at least one Grade versus baseline Grade): All Grades (%): 7 (100%) (%)
  Total Bilirubin, worst CTC Grade by cycle (increased of at least one Grade versus baseline Grade): Grade 1-2 (%): 7 (100%) (%)
[1]; [7]
  SGOT, worst CTC Grade by cycle (increased of at least one Grade versus baseline Grade): All Grades (%): 4 (80%) (%)
  SGOT, worst CTC Grade by cycle (increased of at least one Grade versus baseline Grade): Grade 1-2 (%): 1 (20%) (%)
  SGOT, worst CTC Grade by cycle (increased of at least one Grade versus baseline Grade): Grade 3-4 (%): 3 (60%) (%)
  Total Bilirubin, worst CTC Grade by cycle (increased of at least one Grade versus baseline Grade): All Grades (%): 4 (80%) (%)
  Total Bilirubin, worst CTC Grade by cycle (increased of at least one Grade versus baseline Grade): Grade 1-2 (%): 3 (60%) (%)
  Total Bilirubin, worst CTC Grade by cycle (increased of at least one Grade versus baseline Grade): Grade 3-4 (%): 1 (20%) (%)
[1]; [8]
  SGPT, worst CTC Grade by cycle (increased of at least one Grade versus baseline Grade): All Grades (%): 5 (83%) (%)
  SGPT, worst CTC Grade by cycle (increased of at least one Grade versus baseline Grade): Grade 3-4 (%): 5 (83%) (%)
[1]; q6wk versus q8wk schedule
  frequency of transaminitis, grade 3-4 events: lower in the q6wk than in the q8wk schedule
[2]; [9]
  Leucocytes, worst CTC Grade by cycle: All Grades (%): 4 (36%) (%)
  Leucocytes, worst CTC Grade by cycle: Grade 1-2 (%): 3 (27%) (%)
[2]; 200 mcg/m^2 q6wk, Cycle 1, 5 evaluable cycles
  Leucocytes, worst CTC Grade by cycle: All Grades (%): 1 (20%) (%)
[2]; [10]
  Leucocytes, worst CTC Grade by cycle: All Grades (%): 3 (50%) (%)
  Leucocytes, worst CTC Grade by cycle: Grade 1-2 (%): 3 (50%) (%)
[2]; [11]
  Leucocytes, worst CTC Grade by cycle: All Grades (%): 4 (80%) (%)
  Leucocytes, worst CTC Grade by cycle: Grade 1-2 (%): 4 (80%) (%)
[2]; [12]
  Leucocytes, worst CTC Grade by cycle: All Grades (%): 2 (67%) (%)
  Leucocytes, worst CTC Grade by cycle: Grade 1-2 (%): 2 (67%) (%)
[2]; [13]
  Leucocytes, worst CTC Grade by cycle: All Grades (%): 2 (100%) (%)
  Leucocytes, worst CTC Grade by cycle: Grade 1-2 (%): 2 (100%) (%)
[2]; [14]
  Leucocytes, worst CTC Grade by cycle: All Grades (%): 1 (25%) (%)
  Leucocytes, worst CTC Grade by cycle: Grade 1-2 (%): 1 (25%) (%)
[2]; [15]
  Leucocytes, worst CTC Grade by cycle: All Grades (%): 1 (33%) (%)
  Leucocytes, worst CTC Grade by cycle: Grade 1-2 (%): 1 (33%) (%)
[2]; [16]
  Leucocytes, worst CTC Grade by cycle: All Grades (%): 8 (44%) (%)
  Leucocytes, worst CTC Grade by cycle: Grade 1-2 (%): 8 (44%) (%)
[2]; [17]
  Leucocytes, worst CTC Grade by cycle: All Grades (%): 2 (33%) (%)
  Leucocytes, worst CTC Grade by cycle: Grade 1-2 (%): 2 (33%) (%)
[2]; [18]
  Leucocytes, worst CTC Grade by cycle: All Grades (%): 6 (50%) (%)
  Leucocytes, worst CTC Grade by cycle: Grade 1-2 (%): 6 (50%) (%)
[2]; [19]
  Leucocytes, worst CTC Grade by cycle: All Grades (%): 7 (87%) (%)
  Leucocytes, worst CTC Grade by cycle: Grade 1-2 (%): 7 (87%) (%)
[2]; [20]
  Leucocytes, worst CTC Grade by cycle: All Grades (%): 3 (75%) (%)
  Leucocytes, worst CTC Grade by cycle: Grade 1-2 (%): 3 (75%) (%)
[2]; [21]
  Leucocytes, worst CTC Grade by cycle: All Grades (%): 4 (100%) (%)
  Leucocytes, worst CTC Grade by cycle: Grade 1-2 (%): 4 (100%) (%)
[2]; [22]
  Leucocytes, worst CTC Grade by cycle: All Grades (%): 3 (75%) (%)
  Leucocytes, worst CTC Grade by cycle: Grade 1-2 (%): 3 (75%) (%)
[2]; [23]
  Leucocytes, worst CTC Grade by cycle: All Grades (%): 2 (67%) (%)
  Leucocytes, worst CTC Grade by cycle: Grade 1-2 (%): 2 (67%) (%)
[2]; [24]
  Leucocytes, worst CTC Grade by cycle: All Grades (%): 1 (100%) (%)
  Leucocytes, worst CTC Grade by cycle: Grade 1-2 (%): 1 (100%) (%)
[3]
  activity in vitro and in vivo: active
[4]; 6 patients
  complete response (CR) in liver lesions: 1
  partial responses (PRs) in liver lesions (2 confirmed and 1 unconfirmed): 3
[4]
  patients with response in liver lesions: 4 out of 6
[5]
  cross-resistance: No cross-resistance
